Measured values from patent publication US7521458B2, “Spiropiperidylrifamycins for the treatment of mycobacterial infections” (priority 2004, dated 2009).

Key:
Type in all cases: cell-based
[1] = tested on: Mycobacterium tuberculosis 1 strain assayed; test: Method of the proportions, Table 3 entry 10
[2] = tested on: Mycobacterium tuberculosis 2 strains assayed; test: Method of the proportions, Table 3 entry 8
[3] = tested on: Mycobacterium tuberculosis ATCC 35838; test: Method of the proportions, Table 3 entry 3
[4] = tested on: Mycobacterium tuberculosis ATCC 35837; test: Method of the proportions, Table 3 entry 1
[5] = tested on: Mycobacterium tuberculosis 8 strains assayed; test: Method of the proportions, Table 3 entry 7
[6] = tested on: Mycobacterium tuberculosis H37 RV; test: Method of the proportions, Table 3 entry 5
[7] = tested on: Mycobacterium tuberculosis ATCC 35822; test: Method of the proportions, Table 3 entry 4
[8] = tested on: Mycobacterium tuberculosis 38 strains assayed; test: Method of the proportions, Table 3 entry 6
[9] = tested on: Mycobacterium tuberculosis 3 strains assayed; test: Method of the proportions, Table 3 entry 9
[10] = tested on: Mycobacterium avium-intracellulare complex 5 strains assayed; test: Method of the proportions, Table 3 entry 11; conditions: for MIC: Mycobacterium avium-intracellulare, five strains, all resistant
[11] = tested on: Mycobacterium Kansasii 4 strains assayed; test: Method of the proportions, Table 3 entry 12
[12] = tested on: Mycobacterium tuberculosis ATCC 35820; test: Method of the proportions, Table 3 entry 2
[13] = concentration analysed 0.2 μg/ml
[14] = concentration analysed 25 μg/ml

4-deoxo-3,4-[(2R)-2-spiro(N-allyl-2,6-diphenyl-4-piperidil)-2,5-dihydro-1H-imidazo]rifamycin S [RFA 7M]
s (s means sensitive): Sensitivity of strain (s/R) ([1]; concentration analysed 1 μg/ml) | Sensitivity of strains (s/R) ([2]; concentration analysed 1 μg/ml) | Sensitivity of strain (s/R) ([3]; concentration analysed 1 μg/ml) | Sensitivity of strains (s/R) ([5]; concentration analysed 1 μg/ml) | Sensitivity of strain (s/R) ([6]; concentration analysed 1 μg/ml) | Sensitivity of strain (s/R) ([7]; concentration analysed 1 μg/ml) | Sensitivity of strains (s/R) ([8]; concentration analysed 1 μg/ml) | Sensitivity of strains (s/R) ([9]; concentration analysed 1 μg/ml) | Sensitivity of strains (s/R) ([11]; concentration analysed 1 μg/ml) | Sensitivity of strain (s/R) ([12]; concentration analysed 1 μg/ml)
R (R means resistent): Sensitivity of strain (s/R) ([4]; concentration analysed 1 μg/ml) | Sensitivity of strains (s/R) ([10]; concentration analysed 1 μg/ml)

4-deoxo-3,4-[(2R)-2-spiro(N-buthyl-2,6-diphenyl-4-piperidil)-2,5-dihydro-1H-imidazo]rifamycin S [RFA 16M]
s/R: Sensitivity of strains (s/R) ([10]; concentration analysed 1 μg/ml)
s (s means sensitive): Sensitivity of strain (s/R) ([1]; concentration analysed 1 μg/ml) | Sensitivity of strains (s/R) ([2]; concentration analysed 1 μg/ml) | Sensitivity of strain (s/R) ([3]; concentration analysed 1 μg/ml) | Sensitivity of strain (s/R) ([4]; concentration analysed 1 μg/ml) | Sensitivity of strains (s/R) ([5]; concentration analysed 1 μg/ml) | Sensitivity of strain (s/R) ([6]; concentration analysed 1 μg/ml) | Sensitivity of strain (s/R) ([7]; concentration analysed 1 μg/ml) | Sensitivity of strains (s/R) ([8]; concentration analysed 1 μg/ml) | Sensitivity of strains (s/R) ([9]; concentration analysed 1 μg/ml) | Sensitivity of strains (s/R) ([11]; concentration analysed 1 μg/ml) | Sensitivity of strain (s/R) ([12]; concentration analysed 1 μg/ml)

4-deoxo-3,4-[(2R)-2-spiro(N-homoallyl-2,6-diphenyl-4-piperidil)-2,5-dihydro-1H-imidazo]rifamycin S [RFA 15M]
R (R means resistent): Sensitivity of strain (s/R) ([4]; concentration analysed 1 μg/ml)
s/R: Sensitivity of strains (s/R) ([10]; concentration analysed 1 μg/ml)
s (s means sensitive): Sensitivity of strain (s/R) ([1]; concentration analysed 1 μg/ml) | Sensitivity of strains (s/R) ([2]; concentration analysed 1 μg/ml) | Sensitivity of strain (s/R) ([3]; concentration analysed 1 μg/ml) | Sensitivity of strains (s/R) ([5]; concentration analysed 1 μg/ml) | Sensitivity of strain (s/R) ([6]; concentration analysed 1 μg/ml) | Sensitivity of strain (s/R) ([7]; concentration analysed 1 μg/ml) | Sensitivity of strains (s/R) ([8]; concentration analysed 1 μg/ml) | Sensitivity of strains (s/R) ([9]; concentration analysed 1 μg/ml) | Sensitivity of strains (s/R) ([11]; concentration analysed 1 μg/ml) | Sensitivity of strain (s/R) ([12]; concentration analysed 1 μg/ml)

4-deoxo-3,4-[(2R)-2-spiro[2,6-bis(4-fluorophenyl)-4-piperidil]-2,5-dihydro-1H-imidazo]rifamycin S [RFA 5M]
s (s means sensitive): Sensitivity of strain (s/R) ([1]; concentration analysed 1 μg/ml) | Sensitivity of strains (s/R) ([2]; concentration analysed 1 μg/ml) | Sensitivity of strain (s/R) ([3]; concentration analysed 1 μg/ml) | Sensitivity of strain (s/R) ([4]; concentration analysed 1 μg/ml) | Sensitivity of strains (s/R) ([5]; concentration analysed 1 μg/ml) | Sensitivity of strain (s/R) ([6]; concentration analysed 1 μg/ml) | Sensitivity of strain (s/R) ([7]; concentration analysed 1 μg/ml) | Sensitivity of strains (s/R) ([8]; concentration analysed 1 μg/ml) | Sensitivity of strains (s/R) ([9]; concentration analysed 1 μg/ml) | Sensitivity of strains (s/R) ([10]; concentration analysed 1 μg/ml) | Sensitivity of strains (s/R) ([11]; concentration analysed 1 μg/ml) | Sensitivity of strain (s/R) ([12]; concentration analysed 1 μg/ml)

4-deoxo-3,4-[(2R)-2-spiro[2,6-bis(4-methoxiphenyl)-4-piperidyl]-2,5-dihydro-1H-imidazo]rifamycin S [RFA 4M]
s/R: Sensitivity of strains (s/R) ([10]; concentration analysed 1 μg/ml)
s (s means sensitive): Sensitivity of strain (s/R) ([1]; concentration analysed 1 μg/ml) | Sensitivity of strains (s/R) ([2]; concentration analysed 1 μg/ml) | Sensitivity of strain (s/R) ([3]; concentration analysed 1 μg/ml) | Sensitivity of strain (s/R) ([4]; concentration analysed 1 μg/ml) | Sensitivity of strains (s/R) ([5]; concentration analysed 1 μg/ml) | Sensitivity of strain (s/R) ([6]; concentration analysed 1 μg/ml) | Sensitivity of strain (s/R) ([7]; concentration analysed 1 μg/ml) | Sensitivity of strains (s/R) ([8]; concentration analysed 1 μg/ml) | Sensitivity of strains (s/R) ([9]; concentration analysed 1 μg/ml) | Sensitivity of strains (s/R) ([11]; concentration analysed 1 μg/ml) | Sensitivity of strain (s/R) ([12]; concentration analysed 1 μg/ml)

CC[C@@H](CO)NCCN[C@@H](CC)CO [EB, ethambutol]
s (s means sensitive): Sensitivity of strain (s/R) ([1]; concentration analysed 5 μg/ml) | Sensitivity of strains (s/R) ([2]; concentration analysed 5 μg/ml) | Sensitivity of strain (s/R) ([4]; concentration analysed 5 μg/ml) | Sensitivity of strains (s/R) ([5]; concentration analysed 5 μg/ml) | Sensitivity of strain (s/R) ([6]; concentration analysed 5 μg/ml) | Sensitivity of strain (s/R) ([7]; concentration analysed 5 μg/ml) | Sensitivity of strains (s/R) ([8]; concentration analysed 5 μg/ml) | Sensitivity of strains (s/R) ([9]; concentration analysed 5 μg/ml) | Sensitivity of strain (s/R) ([12]; concentration analysed 5 μg/ml)
R (R means resistent): Sensitivity of strain (s/R) ([3]; concentration analysed 5 μg/ml) | Sensitivity of strains (s/R) ([10]; concentration analysed 5 μg/ml) | Sensitivity of strains (s/R) ([11]; concentration analysed 5 μg/ml)

NNC(=O)c1ccncc1 [IZ, isoniazid]
s (s means sensitive): Sensitivity of strain (s/R) [3, 13] | Sensitivity of strain (s/R) [4, 13] | Sensitivity of strains (s/R) [5, 13] | Sensitivity of strain (s/R) [6, 13] | Sensitivity of strains (s/R) [8, 13] | Sensitivity of strains (s/R) [9, 13] | Sensitivity of strain (s/R) [12, 13]
R (R means resistent): Sensitivity of strain (s/R) [1, 13] | Sensitivity of strains (s/R) [2, 13] | Sensitivity of strain (s/R) [7, 13] | Sensitivity of strains (s/R) [10, 13] | Sensitivity of strains (s/R) [11, 13]

NC(=O)c1cnccn1 [PZ, pyrazinamide]
R (R means resistent): Sensitivity of strains (s/R) [5, 14] | Sensitivity of strains (s/R) [10, 14] | Sensitivity of strains (s/R) [11, 14]
s (s means sensitive): Sensitivity of strain (s/R) [1, 14] | Sensitivity of strains (s/R) [2, 14] | Sensitivity of strain (s/R) [3, 14] | Sensitivity of strain (s/R) [4, 14] | Sensitivity of strain (s/R) [6, 14] | Sensitivity of strain (s/R) [7, 14] | Sensitivity of strains (s/R) [8, 14] | Sensitivity of strains (s/R) [9, 14] | Sensitivity of strain (s/R) [12, 14]

CO[C@H]1/C=C/O[C@@]2(C)Oc3c(C)c(O)c4c(c3C2=O)C2=NC3(CCN(CC(C)C)CC3)NC2=C(NC(=O)/C(C)=C\C=C\[C@H](C)[C@H](O)[C@@H](C)[C@@H](O)[C@@H](C)[C@H](OC(C)=O)[C@@H]1C)C4=O [RFB, rifabutin]
s (s means sensitive): Sensitivity of strain (s/R) ([1]; concentration analysed 1 μg/ml) | Sensitivity of strains (s/R) ([2]; concentration analysed 1 μg/ml) | Sensitivity of strain (s/R) ([3]; concentration analysed 1 μg/ml) | Sensitivity of strains (s/R) ([5]; concentration analysed 1 μg/ml) | Sensitivity of strain (s/R) ([6]; concentration analysed 1 μg/ml) | Sensitivity of strain (s/R) ([7]; concentration analysed 1 μg/ml) | Sensitivity of strains (s/R) ([8]; concentration analysed 1 μg/ml) | Sensitivity of strains (s/R) ([9]; concentration analysed 1 μg/ml) | Sensitivity of strains (s/R) ([11]; concentration analysed 1 μg/ml) | Sensitivity of strain (s/R) ([12]; concentration analysed 1 μg/ml)
> 1 µg/mL: MIC [10]
R (R means resistent): Sensitivity of strain (s/R) ([4]; concentration analysed 1 μg/ml) | Sensitivity of strains (s/R) ([10]; concentration analysed 1 μg/ml)

CO[C@H]1/C=C/O[C@@]2(C)Oc3c(C)c(O)c4c(O)c(c(/C=N/N5CCN(C)CC5)c(O)c4c3C2=O)NC(=O)/C(C)=C\C=C\[C@H](C)[C@H](O)[C@@H](C)[C@@H](O)[C@@H](C)[C@H](OC(C)=O)[C@@H]1C [RI, rifampicin]
> 1 µg/mL: MIC [10]
R (R means resistent): Sensitivity of strain (s/R) ([4]; concentration analysed 1 μg/ml) | Sensitivity of strains (s/R) ([10]; concentration analysed 1 μg/ml)
s (s means sensitive): Sensitivity of strain (s/R) ([1]; concentration analysed 1 μg/ml) | Sensitivity of strains (s/R) ([2]; concentration analysed 1 μg/ml) | Sensitivity of strain (s/R) ([3]; concentration analysed 1 μg/ml) | Sensitivity of strains (s/R) ([5]; concentration analysed 1 μg/ml) | Sensitivity of strain (s/R) ([6]; concentration analysed 1 μg/ml) | Sensitivity of strain (s/R) ([7]; concentration analysed 1 μg/ml) | Sensitivity of strains (s/R) ([8]; concentration analysed 1 μg/ml) | Sensitivity of strains (s/R) ([9]; concentration analysed 1 μg/ml) | Sensitivity of strains (s/R) ([11]; concentration analysed 1 μg/ml) | Sensitivity of strain (s/R) ([12]; concentration analysed 1 μg/ml)
